Laboratory results from US9751919B2, “Antimicrobial compositions comprising a hyaluronic acid binding peptide and a β-lactam antibiotic” (priority 2012, dated 2017).
“And” between values parts separate entries of the source, which are not always exact repeats. Equal values may be shown once. Marks after values point to notes of the source that are not given here.

Tests used:
VRSA = assay: MIC (CLSI broth dilution), agent alone; assay type: cell-based, Staphylococcus aureus; design: unit not given beside the values
Method: VISA (strains 92, 95 and 96), VRSA (strains 105 and 106) and E. coli (strain 69717) isolates were also tested. One MSSA was used as a control. All MICs were assessed using CLSI guidelines. Also assessed was the activity of cefazolin, ceftriazone, meropenem, and a piperacillin/tazobactam combination antibiotic. Minimum inhibitory concentration (MIC) is the lowest concentration of an antimicrobial that will inhibit the visible growth of a microorganism after incubation.
Antimicrobial Susceptibility Testing: A custom designed panel of antimicrobials was created. The panel included: PEP35, penicillin, piperacillin/tazobactam, cefazolin, ceftriaxone, meropenem, clarithromycin, clindamycin, gentamicin, amikacin, vancomycin, ciprofloxacin, levofloxacin, moxifloxacin, linezolid, trimethoprim/sulfamethoxazole and doxycycline. These agents were obtained as laboratory grade powders from their respective manufacturers. Stock solutions were prepared and dilutions made as described by the Clinical Laboratory Standards Institute (2005 CLSI). Following two subcultures from frozen stock the MICs of the antimicrobial agents for the isolates were determined by the CLSI 2005 approved broth macrodilution method. Briefly, test tubes containing doubling antibiotic dilutions (2 ml per tube) of cation adjusted Mueller-Hinton broth (eg. for Enterobacteriaceae) with or without lysed horse blood (2-5% V/V) [eg. for S. pneumoniae] were inoculated to achieve a final concentration of approximately 5×10^5 CFU/ml and incubated in ambient air for 24 hours prior to reading. Colony counts were performed periodically to confirm inocula. Quality control was performed every two weeks using a variety of ATCC QC organisms including; S. aureus 29213, E. faecalis 29212, E. coli 25922 and P. aeruginosa 27853. For all antimicrobials as well as PEP35, CLSI criteria were used.
One MSSA was used as a control. All MICs were assessed using CLSI guidelines.

S. pneumoniae = assay: Checkerboard assay (FIC index); assay type: cell-based, Streptococcus pneumoniae; conditions: antibiotic combined with PEP35;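 further: each agent diluted from 0.03 to 4 times its MIC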
Method: (§1) The checkerboard assays were carried out as described by Eliopoulos and Moellering (Chapter 9) in Antibiotic in Laboratory Medicine, Lorian Ed. 1996 as well as Bonapace et al. Diagnostic Microbiology and Infectious Diseases 2002; 44:363-366 and Bonapace et al. Diagnostic Microbiology and Infectious Diseases 2000; 38:43-50. In brief, checkerboard assays were performed in 96 well microtitre trays using an 8-by-8 well configuration. […] 96-well custom designed microtitre plates contained 100 ul/well of cation adjusted Mueller-Hinton broth (eg. for Enterobacteriaceae) with or without lysed horse blood (2-5% V/V) [eg. for S. pneumoniae] and were inoculated to achieve a final concentration of approximately 5×10^5 CFU/ml and incubated in ambient air for 24 hours prior to reading. Colony counts were performed periodically to confirm inocula. Quality control was performed every two weeks using a variety of ATCC QC organisms including; S. pneumoniae 49619, S. aureus 29213, E. faecalis 29212, E. coli 25922 and P. aeruginosa 27853. For all antimicrobials as well as PEP35, CLSI criteria was used.
(§2) The fractional inhibitory concentration index (FIC index) was used to interpret synergy, antagonism or additivity/indifference. FIC index=FIC of drug A+FIC of drug B where:
(§3) The FIC of drug A and drug B is calculated as follows, FIC drug A=MIC of drug A in combination/MIC of drug A alone and FIC of drug B=MIC of drug B in combination/MIC of drug B alone. Synergy is defined as FIC index ≦0.5, additivity/indifference FIC >0.5-4 and antagonism FIC index >4.
(§4) Antimicrobials used included PEP35, cefazolin, ceftriaxone, vancomycin, linezolid, tigecycline and daptomycin versus Gram-positive cocci and PEP35, gentamicin, levofloxacin, piperacillin/tazobactam, meropenem and colistin (Polymyxin E) versus Gram-negative bacilli. These agents were obtained as laboratory grade powders from their respective manufacturers. Stock solutions were prepared and dilutions made as described by the Clinical Laboratory Standards Institute (2005 CLSI).
(§5) Organisms included Gram-positive cocci (2 strains of each): Methicillin-susceptible Staphylococcus aureus (MSSA), community-associated (CA) and healthcare-associated (HA) methicillin-resistant Staphylococcus aureus (MRSA), vancomycin-intermediate Staphylococcus aureus (VISA), vancomycin-resistant Staphylococcus aureus (VRSA), methicillin-resistant Staphylococcus epidermidis (MRSE), Streptococcus pyogenes, Streptococcus agalactiae, Streptococcus pneumoniae, Enterococcus faecalis, Enterococcus faecium and vancomycin-resistant enterococcus (VRE). Gram-negative bacilli tested (2 strains of each) included: E. coli, Pseudomonas aeruginosa, Klebsiella pneumoniae, K. oxytoca, Enterobacter cloacae, P. mirabilis and Stenotrophomonas maltophilia. MIC testing, following two subcultures from frozen stock were determined by the CLSI 2005 approved broth microdilution method.

E. Faecium = assay: Checkerboard assay (FIC index); assay type: cell-based, Enterococcus faecium; conditions: antibiotic combined with PEP35
Method: as §1, §2, §3, §4, §5

VRE = assay: Checkerboard assay (FIC index); assay type: cell-based, Enterococcus faecium; conditions: antibiotic combined with PEP35
Method: as §1, §2, §3, §4, §5

[1] = S. pneumoniae-Pen I 72302 (MHB)
[2] = S. pneumoniae-Pen I 78663 (MHB)
[3] = S. pneumoniae-Pen R 76065 (MHB)
[4] = S. pneumoniae-Pen R 78519 (MHB)
[5] = S. pneumoniae-Pen S 70400 (MHB)
[6] = S. pneumoniae-Pen S 71263 (MHB)

Compound | MIC (VRSA; VRSA 105) | MIC (VRSA; VRSA 105, in µg/mL) | MIC (VRSA; VRSA 106) | MIC (VRSA; VRSA 106, in µg/mL) | Avg ΣFIC (range) (S. pneumoniae; [1]) | Avg ΣFIC (range) (S. pneumoniae; [2]) | Avg ΣFIC (range) (S. pneumoniae; [3]) | Avg ΣFIC (range) (S. pneumoniae; [4]) | Avg ΣFIC (range) (S. pneumoniae; [5]) | Avg ΣFIC (range) (S. pneumoniae; [6]) | Avg ΣFIC (range) (E. Faecium; E. Faecium 78024) | Avg ΣFIC (range) (E. Faecium; E. Faecium 78352) | Avg ΣFIC (range) (VRE; VRE 70769) | Avg ΣFIC (range) (VRE; VRE 77872) | MIC (VRSA; VRSA 106, listed as CEFTRIAXONE) | MIC (VRSA; VRSA 105, listed as VAN, in µg/mL) | MIC (VRSA; VRSA 106, listed as VAN, in µg/mL)
Cc1nnc(SCC2=C(C(=O)O)N3C(=O)[C@@H](NC(=O)Cn4cnnn4)[C@H]3SC2)s1 [Cefazolin] | 128/128/128/ | 128 and 256 | 256/256 | 256 and 128 | 1.1 (1.0-1.25) | 1.1 (1.0-1.25) | 0.70 (0.53-1.06) | 0.97 (0.75-1.12) | 0.68 (0.515-1.06) | 0.99 (0.62-1.25) | 1.16 (1.015-1.5) | 1.10 (1-1.25) | >1* | >1* | – | – | –
CO/N=C(\C(=O)N[C@@H]1C(=O)N2C(C(=O)O)=C(CSc3nc(=O)c(=O)[nH]n3C)CS[C@H]12)c1csc(N)n1 [Ceftriaxone] | 2048 and 1024/1024 | – | 1024 and 2048/2048 | – | 1.05 (0.75-1.25) | 1.1 (1.0-1.25) | 1.21 (1.03-1.5) | 1.05 (0.75-1.25) | 0.99 (0.62-1.06) | 0.91 (0.62-1.12) | >1* | 0.99 (0.62-1.25) | >1* | >1* | 1024/1024 | – | –
CCCCCCCCCC(=O)N[C@@H](Cc1c[nH]c2ccccc12)C(=O)N[C@H](CC(N)=O)C(=O)N[C@@H](CC(=O)O)C(=O)N[C@@H]1C(=O)NCC(=O)N[C@@H](CCCN)C(=O)N[C@@H](CC(=O)O)C(=O)N[C@H](C)C(=O)N[C@@H](CC(=O)O)C(=O)NCC(=O)N[C@H](CO)C(=O)N[C@@H]([C@H](C)CC(=O)O)C(=O)N[C@@H](CC(=O)c2ccccc2N)C(=O)O[C@@H]1C [Daptomycin, daptomycin] | – | – | – | – | 0.99 (0.62-1.25) | 1.19 (1.03-1.5) | 1.09 (0.56-1.5) | 1.19 (1.03-1.5) | 1.21 (1.03-1.5) | 1.39 (1.03-2.5) | 1.19 (1.03-1.5) | 1.10 (0.75-1.5) | 0.82 (0.28-1.25) | 1.34 (1.03-1.5) | – | – | –
CC(=O)NC[C@H]1CN(c2ccc(N3CCOCC3)c(F)c2)C(=O)O1 [Linezolid, linezolid] | – | – | – | – | 0.86 (0.56-1.12) | 1.05 (0.75-1.25) | 0.74 (0.53-1.12) | 0.92 (0.75-1.12) | 0.63 (0.5-1.06) | 0.92 (0.62-1.12) | 1.1 (1-1.25) | 0.80 (0.5-1.06) | 1.09 (1-1.25) | 1.19 (1.03-1.5) | – | – | –
C[C@@H](O)[C@H]1C(=O)N2C(C(=O)O)=C(S[C@@H]3CN[C@H](C(=O)N(C)C)C3)[C@H](C)[C@H]12 [Meropenem] | – | 32 and 16 | 16 and 16/16 | – | – | – | – | – | – | – | – | – | – | – | – | – | –
CN(C)c1cc(NC(=O)CNC(C)(C)C)c(O)c2c1C[C@H]1C[C@H]3[C@H](N(C)C)C(O)=C(C(N)=O)C(=O)[C@@]3(O)C(O)=C1C2=O [Tigecycline, tigecycline] | – | – | – | – | 0.68 (0.53-1.03) | 1.0 (0.56-1.12) | 0.91 (0.62-1.12) | 0.98 (0.75-1.12) | 0.91 (0.62-1.12) | 0.92 (0.56-1.25) | 1.19 (1.03-1.5) | 0.99 (0.75-1.12) | 1.2 (1.03-1.05) | 1.39 (1.03-2.06) | – | – | –
CN[C@H](CC(C)C)C(=O)N[C@H]1C(=O)N[C@@H](CC(N)=O)C(=O)N[C@H]2C(=O)N[C@H]3C(=O)N[C@H](C(=O)N[C@H](C(=O)O)c4cc(O)cc(O)c4-c4cc3ccc4O)[C@H](O)c3ccc(c(Cl)c3)Oc3cc2cc(c3O[C@@H]2O[C@H](CO)[C@@H](O)[C@H](O)[C@H]2O[C@H]2C[C@](C)(N)[C@H](O)[C@H](C)O2)Oc2ccc(cc2Cl)[C@H]1O [Vancomycin] | 512/512/512 | – | 512/512/512 | – | 1.26 (1.06-1.5) | 1.1 (1.0-1.25) | 0.86 (0.53-1.25) | 1.2 (1.015-1.5) | 0.91 (0.56-1.25) | 1.05 (0.75-1.25) | 1.19 (1.03-1.5) | 1.59 (1.06-2.5) | 0.92 (0.506-1.25) | 1.19 (1.03-1.5) | – | 512 | 512
KKKKKLQLQLNLIKKKVQVSVVVVRRH (Reordered human peptide sequence) [Scrambled PEP35] | – | 64 | – | 128 | – | – | – | – | – | – | – | – | – | – | – | – | –
LKQKIKHVVKLKVVVKLRSQLVKRKQN (listed as Mus sp.) [PEP35] | – | 128 and 64 | 128 and 128/128/128 | – | – | – | – | – | – | – | – | – | – | – | – | – | –
piperacillin/tazobactam | – | 64 | – | 64 | – | – | – | – | – | – | – | – | – | – | – | – | –
